In experiment [1] the test system is metastatic lung brain tumors. The experiment can be described thus: [14C]AIB uptake in metastatic lung brain tumor model. The experiment is classed as in vivo. As to conditions: intravenous co-injection.
For experiment [2], the system named is intracranial human glial tumors. Nature of the experiment: Survival study, nude mice with intracranial human glial tumors. It is filed as in vivo, mouse. As to conditions: i.v., three consecutive doses for three days. Here is the method: GBM-xenograft rat and mouse models were developed by intracranially implanting primary GBM cells isolated from patient brain tumor tissue. […] To investigate whether MS administration by intracarotid (i.c.) and intravenous (i.v.) routes, increases BTB permeability to different tracers, and enhances delivery to brain tumor, permeability studies were performed.
Nude mice were intracranially implanted with cells. The tumor was allowed to grow for 7 days before treatment was initiated.

In a further experiment the test system is GBM and RG2 brain tumors. Nature of the experiment: GFP-adenoviral and erbB-2 antibody delivery across the BTB. It is filed as in vivo, rat. Here is the method: GFP-Adv constructs were prepared as described by Smith et al. (Smith, G. M., Berry, R. L., Yang, J., and Tanelian, D. Electrophysiological analysis of dorsal root ganglion neurons pre- and post-coexpression of green fluorescent protein and functional 5-HHT3 recepter. J. Neurophysiol. 77:3115-3121, 1997) with slight modifications. GFP gene was first cloned into a shuttle vector, pAdTrack-CMV, and the resultant plasmid was linearized by digesting it with restriction endonuclease Pipe I, and subsequently co-transformed into E. Coli cells with an adenoviral backbone plasmid, pAdEasy-1. Recombinant plasmids were transfected into 293 cells. The presence of recombinant adenoviruses was verified by RT-PCR. GFP-Adv (1×10^9 pfu/ml) was infused intracarotidly (i.c.) with or without MS in rats with implanted GBM. Neu rabbits polyclonal and Her-2 MAb, which are specific for rat and human erbB-2 receptors, respectively, were used. […] Her-2 MAbs bound to Her-2 receptors, in vivo was detected by incubating rat brain cryosections as per the manufacturer's (Molecular Probes, OR) procedure with Alexa Flour-647 conjugated secondary antibody (Zecon labeling kit) that specifically binds to the IgG1 fragment of Her-2 MAb. Neu antibody binding to erbB-2 receptors in RG2 brain tumor sections was detected using anti-rabbit IgG conjugated with TRITC. […]

Structures can show the parent of a compound that is named as a salt.

The values that follow come from US20050089473A1, “Potassium channel mediated delivery of agents through the blood-brain barrier” (Cedars-Sinai Medical Center, priority 2003, published 2005).

For `Nc1cc(N2CCCCC2)nc(N)[n+]1OS(=O)(=O)[O-]` [MS, minoxidil sulfate], the “Increase of [14C]AIB uptake to the tumor” value in experiment [1] is on record as “approximately three-fold”. The Mean survival in experiment [2] was determined as 27.09 ± 8.7 days. For the same compound, the “Delivery of Her-2 MAb and Neu antibody to brain tumor” value in the experiment with GBM and RG2 brain tumors (MS 30 μg/kg/min i.c. 15 min, then antibody 1 mg/kg) was “enhanced delivery of Her-2 MAb selectively to GBM and Neu to RG2”. Besides, the “Delivery of adv-GFP to brain tumor” value in the experiment on GBM and RG2 brain tumors (MS i.c. with GFP-Adv 1×10^9 pfu/ml, GBM nude rats) is given as “enhanced adv-GFP delivery to brain tumors”.
